Test system: 435261-313-R-J1-PDC complex spheroid viability
Test: Anticancer human tumor 435261-313-R-J1-PDC patient-derived colon adenocarcinoma cell line growth inhibition [GQUAD]
Conditions: for IC50: curve of first compound; for viability, T/C: stronger effect = lower value
How it was run: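 Viability of tumor cells grown as complex spheroids with endothelial and stromal cells, exposed to drug combinations. Top concentration at or near clinical Cmax (else 10 microM), diluted in half-log increments.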

[1] = second compound 0.0316 µM, first compound 0.0316 µM
[2] = second compound 0.0316 µM, first compound 0.1 µM
[3] = second compound 0.0316 µM, first compound 0.316 µM
[4] = second compound 0.0316 µM, first compound 1 µM
[5] = second compound 0.0316 µM, first compound 3.16 µM
[6] = second compound 0.0316 µM, first compound 10 µM
[7] = second compound 0.1 µM, first compound 0.0316 µM
[8] = second compound 0.1 µM, first compound 0.1 µM
[9] = second compound 0.1 µM, first compound 0.316 µM
[10] = second compound 0.1 µM, first compound 1 µM
[11] = second compound 0.1 µM, first compound 3.16 µM
[12] = second compound 0.1 µM, first compound 10 µM
[13] = second compound 0.316 µM, first compound 0.0316 µM
[14] = second compound 0.316 µM, first compound 0.1 µM
[15] = second compound 0.316 µM, first compound 0.316 µM
[16] = second compound 0.316 µM, first compound 1 µM
[17] = second compound 0.316 µM, first compound 3.16 µM
[18] = second compound 0.316 µM, first compound 10 µM
[19] = second compound 1 µM, first compound 0.0316 µM
[20] = second compound 1 µM, first compound 0.1 µM
[21] = second compound 1 µM, first compound 0.316 µM
[22] = second compound 1 µM, first compound 1 µM
[23] = second compound 1 µM, first compound 3.16 µM
[24] = second compound 1 µM, first compound 10 µM
[25] = second compound 3.16 µM, first compound 0.0316 µM
[26] = second compound 3.16 µM, first compound 0.1 µM
[27] = second compound 3.16 µM, first compound 0.316 µM
[28] = second compound 3.16 µM, first compound 1 µM
[29] = second compound 3.16 µM, first compound 3.16 µM
[30] = second compound 3.16 µM, first compound 10 µM
[31] = second compound 10 µM, first compound 0.0316 µM
[32] = second compound 10 µM, first compound 0.1 µM
[33] = second compound 10 µM, first compound 0.316 µM
[34] = second compound 10 µM, first compound 1 µM
[35] = second compound 10 µM, first compound 3.16 µM
[36] = second compound 10 µM, first compound 10 µM
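Also: spheroids exposed to the agents for seven days before readout.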
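For viability, T/C in this document: percent of vehicle control viability with DMSO wells as 100%.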

Work on `C=CCn1c(=O)c2cnc(Nc3ccc(N4CCN(C)CC4)cc3)nc2n1-c1cccc(C(C)(C)O)n1` + Cc1cnc(CNC(=O)c2c(=O)c3ccc(N4CCCN(C)CC4)nc3n3c2sc2ccccc23)cn1 yielded an IC50 (second compound 0.0316 µM) greater than 10000 nM, an IC50 (second compound 0.1 µM) of 266 nM and an IC50 (second compound 0.316 µM) of 2250 nM. The IC50 (second compound 1 µM) was less than 31.6 nM, the IC50 (second compound 3.16 µM) was less than 31.6 nM and the IC50 (second compound 10 µM) was less than 31.6 nM. For the same compound, the viability, T/C [1] was 67.6%, the viability, T/C [2] was 59.2% and the viability, T/C [3] was 59.4%. For the same compound, the viability, T/C [4] was 57%, the viability, T/C [5] was 52.7% and the viability, T/C [6] was 51.3%. It also gave a viability, T/C [7] of 61.3%, a viability, T/C [8] of 56.1% and a viability, T/C [9] of 44.4%. For the same compound, the viability, T/C [10] was 47.8%, the viability, T/C [11] was 54.4% and the viability, T/C [12] was 42.4%. The viability, T/C [13] was 54%, the viability, T/C [14] was 59.2% and the viability, T/C [15] was 49.9%. It also gave a viability, T/C [16] of 52.9%, a viability, T/C [17] of 49.6% and a viability, T/C [18] of 36.8%. For the same compound, the viability, T/C [19] was 34.9%, the viability, T/C [20] was 39.6% and the viability, T/C [21] was 36.2%. The viability, T/C [22] was 39.1%, the viability, T/C [23] was 41.2% and the viability, T/C [24] was 30.5%. It also gave a viability, T/C [25] of 14%, a viability, T/C [26] of 4.69% and a viability, T/C [27] of 8.48%. It also gave a viability, T/C [28] of 4.99%, a viability, T/C [29] of 5.92% and a viability, T/C [30] of 0.17%. It also gave a viability, T/C [31] of 0.17%, a viability, T/C [32] of 0.17% and a viability, T/C [33] of 0.19%. It also gave a viability, T/C [34] of 0.16%, a viability, T/C [35] of 0.19% and a viability, T/C [36] of 0.15%.

`Cc1cccc(N(C)C(=O)C2C(O)CCN2c2nc(C)cc(C(F)(F)F)c2C#N)c1` (stereo unspecified) + CN(C)c1ccc(Nc2c3ccc(NC(=O)CCN4CCCC4)cc3nc3cc(NC(=O)CCN4CCCC4)ccc23)cc1 showed an IC50 (second compound 0.0316 µM) greater than 10000 nM, an IC50 (second compound 0.1 µM) greater than 10000 nM and an IC50 (second compound 0.316 µM) greater than 10000 nM. For the same compound, the IC50 (second compound 1 µM) was greater than 10000 nM, the IC50 (second compound 3.16 µM) was greater than 10000 nM and the IC50 (second compound 10 µM) was less than 31.6 nM. It also gave a viability, T/C [1] of 97.7%, a viability, T/C [2] of 92.1% and a viability, T/C [3] of 99.7%. For the same compound, the viability, T/C [4] was 90.6%, the viability, T/C [5] was 96.2% and the viability, T/C [6] was 123%. It also gave a viability, T/C [7] of 84.8%, a viability, T/C [8] of 92.9% and a viability, T/C [9] of 81.6%. The viability, T/C [10] was 74.5%, the viability, T/C [11] was 99% and the viability, T/C [12] was 84.8%. The viability, T/C [13] was 86.9%, the viability, T/C [14] was 94% and the viability, T/C [15] was 76.8%. The viability, T/C [16] was 90.3%, the viability, T/C [17] was 81.7% and the viability, T/C [18] was 73.1%. It also gave a viability, T/C [19] of 79.3%, a viability, T/C [20] of 95.5% and a viability, T/C [21] of 111%. The viability, T/C [22] was 93%, the viability, T/C [23] was 70.7% and the viability, T/C [24] was 86%. For the same compound, the viability, T/C [25] was 64.3%, the viability, T/C [26] was 65.8% and the viability, T/C [27] was 43.5%. The viability, T/C [28] was 66.4%, the viability, T/C [29] was 59.4% and the viability, T/C [30] was 44.8%. It also gave a viability, T/C [31] of 34.9%, a viability, T/C [32] of 56.7% and a viability, T/C [33] of 47.8%. For the same compound, the viability, T/C [34] was 34%, the viability, T/C [35] was 37.4% and the viability, T/C [36] was 20.9%.

In the case of `Cn1ncnc1[C@H]1c2n[nH]c(=O)c3cc(F)cc(c23)N[C@@H]1c1ccc(F)cc1` + CN(C)c1ccc(Nc2c3ccc(NC(=O)CCN4CCCC4)cc3nc3cc(NC(=O)CCN4CCCC4)ccc23)cc1, the IC50 (second compound 0.0316 µM) is reported as greater than 316 nM, the IC50 (second compound 0.1 µM) is reported as greater than 316 nM and the IC50 (second compound 0.316 µM) is reported as greater than 316 nM. The IC50 (second compound 1 µM) was greater than 316 nM, the IC50 (second compound 3.16 µM) was greater than 316 nM and the IC50 (second compound 10 µM) was less than 0.999 nM. The viability, T/C (second compound 0.0316 µM, first compound 0.000999 µM) was 86.2%, the viability, T/C (second compound 0.0316 µM, first compound 0.00316 µM) was 92.3% and the viability, T/C (second compound 0.0316 µM, first compound 0.00999 µM) was 85.7%. For the same compound, the viability, T/C [1] was 78.1%, the viability, T/C (second compound 0.0316 µM, first compound 0.0999 µM) was 74.2% and the viability, T/C [3] was 74.6%. It also gave a viability, T/C (second compound 0.1 µM, first compound 0.000999 µM) of 97.5%, a viability, T/C (second compound 0.1 µM, first compound 0.00316 µM) of 77.7% and a viability, T/C (second compound 0.1 µM, first compound 0.00999 µM) of 90.6%. The viability, T/C [7] was 92.1%, the viability, T/C (second compound 0.1 µM, first compound 0.0999 µM) was 88.2% and the viability, T/C [9] was 76.7%. For the same compound, the viability, T/C (second compound 0.316 µM, first compound 0.000999 µM) was 97.5%, the viability, T/C (second compound 0.316 µM, first compound 0.00316 µM) was 73.2% and the viability, T/C (second compound 0.316 µM, first compound 0.00999 µM) was 84.1%. The viability, T/C [13] was 79.1%, the viability, T/C (second compound 0.316 µM, first compound 0.0999 µM) was 70.7% and the viability, T/C [15] was 62.2%. It also gave a viability, T/C (second compound 1 µM, first compound 0.000999 µM) of 96.7%, a viability, T/C (second compound 1 µM, first compound 0.00316 µM) of 92.1% and a viability, T/C (second compound 1 µM, first compound 0.00999 µM) of 84.5%. It also gave a viability, T/C [19] of 70.7%, a viability, T/C (second compound 1 µM, first compound 0.0999 µM) of 83.2% and a viability, T/C [21] of 68.9%. It also gave a viability, T/C (second compound 3.16 µM, first compound 0.000999 µM) of 70.4%, a viability, T/C (second compound 3.16 µM, first compound 0.00316 µM) of 77.2% and a viability, T/C (second compound 3.16 µM, first compound 0.00999 µM) of 56.1%. The viability, T/C [25] was 62.4%, the viability, T/C (second compound 3.16 µM, first compound 0.0999 µM) was 78.9% and the viability, T/C [27] was 48.2%. For the same compound, the viability, T/C (second compound 10 µM, first compound 0.000999 µM) was 31.3%, the viability, T/C (second compound 10 µM, first compound 0.00316 µM) was 35.4% and the viability, T/C (second compound 10 µM, first compound 0.00999 µM) was 44.2%. It also gave a viability, T/C [31] of 26.7%, a viability, T/C (second compound 10 µM, first compound 0.0999 µM) of 27.4% and a viability, T/C [33] of 35.3%.
